# Source: patent US20210071180A1, “MICRORNA 584-5P COMPOSITIONS AND METHODS FOR TREATING CANCER” (BOARD OF REGENTS, THE UNIVERSY OF TEXAS SYSTEM, priority 2018, published 2021)
# Legend:
# Assay type in all cases: cell-based
# c-Myc = assay: qPCR and Western blot of c-Myc; conditions: c-Myc-amplified MB cells
# Method: Immunofluorescence and Western blot analysis Immunofluorescence analyses was carried out on cells fixed in 4% paraformaldehyde (Imam, J. S. et al. PLoS One 7, e52397, (2012)). […]
# Because c-Myc supports cancer stem cell growth, promotes radioresistance (Gravina, G. L. et al. Radiat Res 185, 411-422, (2016)), and has elevated levels in VCR-resistant cancer cells (He, Y., Zhang, J., Zhang, J. & Yuan, Y. Chin Med J (Engl) 113, 848-851 (2000)), it was tested whether miR-584-5p and its target genes may regulate c-Myc-amplified MB growth and therapy sensitization by targeting c-Myc levels/functions. […] In FIG. 14D, the p-values were calculated using standard Student t-tests. […] To test that possibility, it was assessed whether miR-584-5p target genes may regulate c-Myc levels in MB. […] Cell viability was assessed using alamarBlue. The p-value was calculated using one-way ANOVA followed by Sidak's multiple-comparisons test. […]
# [1] = system: D425Med and D458Med cells; assay: Gene expression profiling (Illumina HT-12 v4 BeadChip)
# Method: Data are z-transformed. The cutoff criteria for each gene are fold change >2, sample intensity >10, and p-value <0.05. […] To validate the gene expression analysis and target prediction results, it was determined whether miR-584-5p reduced HDAC1/eIF4E3 expression by binding to their 3′-untranslated regions (3′-UTRs). […] Also shown are the portion of the miR-584-5p sequence (SEQ ID NO: 15; UAUGGUU) that binds to the wild-type 3′UTR and seed sequence mutant (SEQ ID NO: 16; […], top panel; and SEQ ID NO: 17; […]; bottom panel). Also shown is miR-584-5p seed sequence mutated sequences. […] Values were normalized to firefly luciferase, which served as an internal control. The p-values were calculated using standard Student t-tests. Error bars represent mean±SEM. […] The p-values were calculated using standard Student t-tests.
# MB cells = assay: IR dose-response, alamarBlue cell viability assay; conditions: IR for 24 hours, normalized to 0 Gy
# Description: FIG. 13C-D show representative immunofluorescence images showing 53BP1 foci in D556Med cells transfected with miR-NC or miR-584-5p mimic (C) or scramble-siRNA or eIF4E3/HDAC1-siRNAs (D) and treated with or without 10 Gy of IR.
# VCR is routinely used during and after radiation therapy to treat MB patients (Packer, R. J. et al. J Neurosurg 74, 433-440, (1991)), mainly because microtubule-targeting agents such as VCR enhances the toxic effects of DNA-damaging agents, including radiation (Poruchynsky, M. S. et al. Proc Natl Acad Sci USA 112, 1571-1576, (2015); and Oehler, C. et al. Neuro Oncol 13, 1000-1010, doi:10.1093/neuonc/nor069 (2011)). Moreover, cells in G2/M phase are the most sensitive to IR (Pawlik, T. M. & Keyomarsi, K. Int J Radiat Oncol Biol Phys 59, 928-942, (2004)). […] All values were normalized to 0 Gy. […] Error bars represent mean±SEM. Next, it was determined whether eIF4E3 or HDAC1 may mediate miR-584-5p's IR response. […] All values were normalized to 0 Gy. […] Error bars represent mean±SEM.
# MB stem cells = assay: Medullosphere (tumor sphere) formation in serum-free stem cell media; conditions: D556Med cells
# Method: Several research groups have posited the presence of tumor-initiating cells in MBs (Manoranjan, B. et al. Pediatr Res 71, 516-522, (2012)). Moreover, the tumor-initiating cells in general have not responded to radiation and chemotherapy drugs (Manoranj an, B. et al. Pediatr Res 71, 516-522, (2012)). Therefore, it was tested whether miR-584 may inhibit MB tumor-initiating cell proliferation. Consistent with the characteristics of tumor-initiating cells, MB cells cultured in serum-free stem cell media formed tumor spheres that were serially passaged for many cycles (FIG. 14A). Bar graphs show number and size of medullospheres obtained from D556Med cells transfected with miR-NC or miR-584-5p mimic. The p-value was calculated using a standard Student t-test. Error bars represent mean±SEM. […] The p-value was calculated using one-way ANOVA followed by Sidak's multiple-comparisons test. Error bars represent mean±SEM. These findings are highly significant because, this study is one of the first to propose a role for miR-584-5p and its target genes in regulating MB stem cell proliferation.
substance,measurement,setting,value
miR-584-5p: microRNA mimic; nucleotide sequence UUAUGGUUUGCCUGGGACUGAG (SEQ ID NO: 1); purchased from Thermofisher (chemistry not given here),c-Myc levels,c-Myc,significantly reduced expression of c-Myc
same,TUBB4 expression,[1]; confirmed by real-time PCR,among the highly downregulated genes
same,FOXO1 levels,[1]; miR-584-5p-treated MB cells,did not change
same,sensitivity to IR relative to scrambled-transfected cells,MB cells,10 fold
same,number and size of medullospheres / MB stem cell proliferation,MB stem cells,significantly smaller and fewer spheres
